Source: paper PMC3257251, “A Whole Cell Assay to Measure Caspase-6 Activity by Detecting Cleavage of Lamin A/C” (PLoS ONE, 2012)
Read-outs that look alike come from different tables or passages of the source. Peptide text beside a SMILES is read from it. * marks the point of attachment. Cbz = O=C(OCc1ccccc1)*; CH2F = FC*

Columns and labels:
[1] = target: T1, Caspase-6 (Homo sapiens, UniProt P55212); test: Enzymatic caspase activity assay, (Ac-VEID)2-Rh110 substrate; conditions: 15 minute enzyme/inhibitor preincubation and 40 minute enzyme reaction
T1 sequence (P55212 24-179 limits assumed): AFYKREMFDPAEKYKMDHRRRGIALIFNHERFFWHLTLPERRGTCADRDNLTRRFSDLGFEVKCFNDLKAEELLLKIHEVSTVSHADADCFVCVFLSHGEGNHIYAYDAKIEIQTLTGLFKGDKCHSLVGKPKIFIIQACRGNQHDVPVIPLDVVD
T1 sequence (P55212 194-293 limits assumed): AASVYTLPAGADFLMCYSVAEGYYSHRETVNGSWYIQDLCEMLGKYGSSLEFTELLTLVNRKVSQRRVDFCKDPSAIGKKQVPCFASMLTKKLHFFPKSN
Experimental: (§1) All peptide inhibitors were serially diluted in DMSO prior to cross dilution in assay buffer (50 mM HEPES pH 7.2, 25 mM MgSO4, 0.5 mM EGTA, 5 mM Glutathione, 0.01% Triton X-100 containing 0.1% Bovine Gamma Globulin (BGG)). […] Rhodamine-labeled bivalent tetrapeptide substrates were obtained from Anaspec (Fremont, CA) and used as follows: 300 pM caspase-3 reacted with 1 µM (Ac-DEVD)2 -Rh110, 1 nM caspase-6 reacted with 5 µM (Ac-VEID)2 -Rh110, 5 pM caspase-7 reacted with 1 µM (Ac-DEVD)2 -Rh110. Enzyme and inhibitor were preincubated for 15 minutes prior to the addition of substrate to initiate the enzymatic reaction.

[2] = system: VEIDase activity in SKNAS cells; test: Caspase-Glo 6 assay (lysate based); assay type: cell-based, human; conditions: 3 µM staurosporine for 6 hours, lysate based readout, read-out: IC50 for inhibition of VEIDase activity, Caspase-Glo 6 assay
Experimental: SKNAS cells were plated at a density of 20,000 cells per well into 384-well black clear-bottom cell culture plates in 20 µl/well growth medium and allowed to adhere overnight. The following day, 5 µl of peptide inhibitor diluted in growth medium was delivered to each well 30 minutes prior to addition of 5 µl/well staurosporine in growth medium. The final DMSO concentration in the assay was 0.1% and the final staurosporine concentration was 3 µM. Following 6 hours incubation at 37°C, Caspase-Glo® 6 reagents (Promega; Madison, WI) were prepared according to manufacturer's recommendation, and 30 µl was added directly to each well, followed by 1 hour incubation at 37°C and luminescence recording using a Perkin Elmer Envision.

[3] = target: T2, caspase-6 cleavage of lamin A/C in SKNAS cells (Homo sapiens, UniProt P55212); test: Cell-based ELISA for cleaved lamin A/C (cellular lamin cleavage assay); conditions: for IC50: inhibitor 30 min before 3 µM staurosporine for 6 hours, small lamin A/C cleavage product; for activity in the cellular lamin degradation assay: inhibitor concentrations up to 100 µM, 3 µM staurosporine for 6 hours; for fold lower potency in cellular lamin assay than in enzymatic assay: cellular lamin cleavage IC50 versus enzymatic caspase-6 IC50
T2 construct: monitors cellular caspase-6 cleavage of endogenous lamin A/C under apoptotic conditions; endogenous in cells; host or cells: SKNAS (ATCC #CRL-2137)
T2 sequence (P55212 24-179 limits assumed): T1 sequence (P55212 24-179 limits assumed)
T2 sequence (P55212 194-293 limits assumed): T1 sequence (P55212 194-293 limits assumed)
Experimental: The following day, cell culture medium was aspirated and replaced with 20 µl/well basal medium (DMEM with no supplements added). […] 5 µl of diluted inhibitor was delivered to each well and incubated for 30 minutes in a cell culture incubator prior to addition of 5 µl/well staurosporine in basal medium. The final DMSO concentration in the assay was 0.1% and the final staurosporine concentration was 3 µM (or indicated concentration). […] Cells were permeabilized by the addition of 50 µl 0.2% Triton X-100 in PBS for 15 minutes at room temperature. […] The following day, primary antibody was aspirated and the wells washed 3 times with 100 µl TBST. Secondary antibody (donkey anti-rabbit IgG, HRP-conjugated (GE Healthcare #NA934V)) was delivered at 1∶2500 dilution in blocking agent (20 µl/well) and incubated 1 hour at room temperature.
In order to develop an assay more amenable to inhibitor screening, this antibody detection was adapted to a plate-based non-denaturing assay. SKNAS cells cultured in 384-well plates were treated with 3 µM staurosporine for six hours prior to fixation with 4% paraformaldehyde and permeabilization with 0.2% Triton X-100. Binding of the two antibodies that recognize neo-epitopes on the large or small lamin degradation products was detected by horseradish-peroxidase-labeled secondary antibody and subsequent chemiluminescent substrate addition (see methods for details).

[4] = target: T3, Caspase-7 (Homo sapiens, UniProt P55210); test: Enzymatic caspase activity assay, (Ac-DEVD)2-Rh110 substrate; conditions: read-out: Mean IC50 Caspase-7; apparent IC50; 15 minute preincubation and 40 minute reaction; 5 pM caspase-7, 1 µM (Ac-DEVD)2-Rh110
T3 sequence (P55210 24-198 limits assumed): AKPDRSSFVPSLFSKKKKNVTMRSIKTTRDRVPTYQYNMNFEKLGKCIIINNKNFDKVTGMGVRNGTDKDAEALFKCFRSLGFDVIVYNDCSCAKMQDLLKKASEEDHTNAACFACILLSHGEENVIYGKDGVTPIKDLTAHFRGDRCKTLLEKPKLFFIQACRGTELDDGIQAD
T3 sequence (P55210 207-303 limits assumed): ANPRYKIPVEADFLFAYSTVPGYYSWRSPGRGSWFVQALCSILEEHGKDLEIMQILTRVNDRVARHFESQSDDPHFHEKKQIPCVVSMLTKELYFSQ
Experimental: as §1

[5] = target: T4, Caspase-3 (Homo sapiens, UniProt P42574); test: as above; assay type: biochemical; conditions: apparent IC50; 15 minute preincubation and 40 minute reaction; 300 pM caspase-3, 1 µM (Ac-DEVD)2-Rh110
T4 construct: made in house; host or cells: E. coli
T4 sequence (P42574 29-175 limits assumed): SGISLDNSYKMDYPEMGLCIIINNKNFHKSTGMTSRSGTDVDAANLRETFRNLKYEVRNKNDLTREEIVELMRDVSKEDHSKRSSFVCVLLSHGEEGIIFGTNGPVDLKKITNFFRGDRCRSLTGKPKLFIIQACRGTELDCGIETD
T4 sequence (P42574 176-277 limits assumed): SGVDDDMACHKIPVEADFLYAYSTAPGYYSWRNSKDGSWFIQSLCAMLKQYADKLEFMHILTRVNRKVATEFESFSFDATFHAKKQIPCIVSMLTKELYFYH
Experimental: as §1

[6] = system: SKNAS cells; test: Mass spectrometry analysis of intracellular inhibitor accumulation; conditions: 10 µM inhibitor, 1 hour at 37°C, LC/MS/MS
Experimental: SKNAS cells were seeded in 12-well plates at a concentration of 5×10^6 cells/mL and allowed to adhere overnight prior to the experiment. Caspase inhibitors (10 µM) in Hank's balance Salt Solution (HBSS; Invitrogen) buffer containing 10 mM HEPES (Invitrogen) and a final DMSO concentration of 0.1% were added in triplicate to the cells. Non specific binding (NSB) samples were prepared by immediately aspirating the dose solution and washing the cells with 1 mL of ice cold HBSS. Cells for the accumulation experiment were incubated for 1 hour at 37°C with inhibitors prior to washing with 1 mL ice cold HBSS. Analytical internal standard (200 nM propranolol (Sigma) in 100% acetonitrile (ACN) with 0.1% formic acid) and blank HBSS buffer were sequentially added to the 12-well plates containing the NSB and accumulation samples. Reference samples for each inhibitor were made by adding internal standard to dose solution and cells incubated for 1 hour at 37°C. The cells from all experiments were scraped from the bottom of the 12 well plates, sonicated for approximately 30 minutes, and centrifuged for 10 minutes at 3000 x g prior to LC/MS/MS analysis.
The LC/MS/MS system consisted of an AB Sciex API4000 mass spectrometer (AB Sciex, Foster City, CA), an Aria LX2 multiplexing LC system (Thermo Fisher Scientific, Waltham, MA) and a CTC Analytics autosampler (Leap Technologies, Carrboro, NC). An ESI Spray source in the positive ion mode and multiple reaction monitoring (MRM) were used to quantitate peak areas. The LC separations were performed on a 50×2.0 mm Gemini C18 analytical column (Phenomenex, Torrance, CA). The mobile phases consisted of water with 0.1% formic acid (mobile phase A) and ACN with 0.1% formic acid (mobile phase B). Mass spectrometer data were processed using Analyst software version 1.4.2.

[7] = system: SKNAS cells; test: LDH release assay; assay type: cell-based, human
Experimental: SKNAS cells were plated at a density of 20,000 cells per well into 384-well black clear-bottom cell culture plates in 20 µl/well growth medium and allowed to adhere overnight. The following day, 5 µl staurosporine diluted in growth medium was delivered to each well and incubated for the indicated time in a cell culture incubator. The final DMSO concentration in the assay was 0.1%. At each timepoint, lactate dehydrogenase (LDH) activity was measured in cell supernatants using a colorimetric LDH activity measurement kit (BioVision; Mountain View, CA) according to manufacturer's recommendation by measuring absorbance at 450 nm using a Spectramax platereader (Molecular Devices; Sunnyvale, CA).

[8] = read-out: Enzymatic Caspase-6 IC50
[9] = read-out: Mean IC50 Caspase-6, apparent IC50, 1 nM caspase-6, 5 µM (Ac-VEID)2-Rh110

| Compound | IC50 [1, 8] [µM] | IC50 [1, 9] [µM] | IC50 ([3]; SKNAS cells) [µM] | IC50 [4] [µM] | IC50 [5] [µM] | other results |
| --- | --- | --- | --- | --- | --- | --- |
| CC(=O)N[C@@H](CC(=O)O)C(=O)N[C@@H](CCC(=O)O)C(=O)N[C@H](C(=O)N[C@H](C=O)CC(=O)O)C(C)C [Ac-DEVD-CHO] | 0.031 | 0.0305 | > 100 | 0.0037 |  | IC50 [2]: 1.49 µM; activity in the cellular lamin degradation assay ([3]; SKNAS cells): inactive in lamin degradation assay |
| CC[C@H](C)[C@H](NC(C)=O)C(=O)N[C@@H](CCC(=O)O)C(=O)N[C@H](C(=O)N[C@H](C=O)CC(=O)O)[C@@H](C)O [Ac-IETD-CHO] (Ac-IETD-aldehyde) |  | 0.0532 |  | 0.553 | 0.0758 |  |
| CC[C@H](C)[C@H](NC(=O)[C@H](CCC(=O)O)NC(=O)[C@@H](NC(C)=O)C(C)C)C(=O)N[C@H](C=O)CC(=O)O [Ac-VEID-CHO] (Ac-VEID-aldehyde) |  |  |  | 0.162 | 0.0136 | IC50 [2]: 0.49 µM; activity in the cellular lamin degradation assay ([3]; SKNAS cells): lacks any activity in the cellular assay |
| CC(C)[C@H](NC(=O)c1ccc2ccccc2n1)C(=O)N[C@@H](CC(=O)O)C(=O)COc1c(F)cccc1F [Q-VD-OPh] | 0.156 |  | 0.94 |  |  | % cell accumulation [6]: 1.72%; fold lower potency in cellular lamin assay than in enzymatic assay [3]: 6 fold |
| CN[C@@H]1C[C@H]2O[C@@](C)([C@@H]1OC)n1c3ccccc3c3c4c(c5c6ccccc6n2c5c31)C(=O)NC4 [staurosporine] |  |  |  |  |  | treatment time required for the same degree of LDH release ([7]; 30 µM staurosporine): 4 h; staurosporine concentration at which LDH release is detected above background levels ([7]; after 6 hours of treatment): ~4 µM; signal:background ratio of lamin A/C degradation ([3]; SKNAS cells, 3 µM staurosporine, six-hour treatment, no inhibitor): 8.8 fold |
| COC(=O)CC[C@H](NC(=O)[C@H](CC(=O)OC)NC(=O)OCc1ccccc1)C(=O)N[C@H](C(=O)N[C@@H](CC(=O)OC)C(=O)CF)C(C)C [z-DEVD-FMK] | 0.402 | 0.402 | > 100 | 0.0985 |  |  |
| COC(=O)C[C@H](NC(=O)[C@H](C)NC(=O)[C@@H](NC(=O)OCc1ccccc1)C(C)C)C(=O)CF [z-VAD-FMK] (Cbz-Val-Ala-Asp(OMe)-CH2F) | 2.11 | 2.11 | 44 | 0.0747 | 0.168 |  |
| CC[C@H](C)[C@H](NC(=O)[C@H](CCC(=O)OC)NC(=O)[C@@H](NC(=O)OCc1ccccc1)C(C)C)C(=O)N[C@@H](CC(=O)OC)C(=O)CF [z-VEID-FMK] (Cbz-VE(OMe)ID(OMe)-CH2F) | 0.129 | 0.129 |  | 0.648 | 0.0451 |  |
| z-EID-TFPM | 0.0084 |  | 21 |  |  |  |
| z-ID-TFPM | 0.019 |  | 0.18 |  |  | % cell accumulation [6]: 1.97%; fold lower potency in cellular lamin assay than in enzymatic assay [3]: ~10 fold |
| z-VEID-tetrafluorophenoxymethyl [z-VEID-TFPM] | < 0.0017 |  | 12 |  |  | % cell accumulation [6]: 0.17% |
